Results on 22 compounds are retold here after patent US8389508B2 (Glaxo Group Limited, priority 2010, dated 2013).

Structures can show the parent of a compound that is named as a salt.

The target in one test is T1, human Endothelial Differentiation Gene 1 (EDG1), S1P1 receptor (Homo sapiens, UniProt P21453).
T1 construct: TEV protease site; Gal4-VP16 transcription factor; expressed in transfected cells; host or cells: EDG1-bla/U2OS (Tango GPCR-bla U2OS parental cell line)
T1 sequence (P21453 whole entry, the tested form may be a part): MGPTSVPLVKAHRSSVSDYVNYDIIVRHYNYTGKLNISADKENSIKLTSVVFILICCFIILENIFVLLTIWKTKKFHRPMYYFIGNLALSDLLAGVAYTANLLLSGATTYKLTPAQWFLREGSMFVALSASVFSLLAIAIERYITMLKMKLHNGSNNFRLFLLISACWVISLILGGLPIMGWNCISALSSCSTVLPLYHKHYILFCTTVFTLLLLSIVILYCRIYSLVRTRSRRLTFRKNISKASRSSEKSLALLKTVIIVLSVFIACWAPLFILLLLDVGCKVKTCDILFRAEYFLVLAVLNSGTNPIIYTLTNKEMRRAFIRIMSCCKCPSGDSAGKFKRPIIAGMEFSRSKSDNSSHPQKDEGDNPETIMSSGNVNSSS
Briefly: S1P1 Assay (Tango EDG1-bla/U2OS beta-lactamase reporter, agonist dose response). The class given is cell-based. Conditions: EDG1-bla/U2OS cells, blue/green emission ratio, 10 point dose response, free base or salt form; read-out: pEC50 (S1P1 assay) (converted). The protocol:
Recombinant EDG1-bla/U2OS cells (contain the human Endothelial Differentiation Gene 1 (EDG1) linked to a TEV protease site and a Gal4-VP16 transcription factor stably integrated into the Tango GPCR-bla U2OS parental cell line) were harvested from growth medium and passaged into assay medium (Invitrogen Freestyle Expression Medium). The cells were starved for 24 hours at 37° C., 5% CO2, harvested and resuspended in assay medium at a density of ˜200,000 cells/ml. All test compounds were dissolved in DMSO at a concentration of 10 mM and were prepared in 100% DMSO to provide 10 point dose response curves. Test compounds in the free base or in a salt form were prepared by Velocity11 Bravo automation (Agilent) were added to wells in columns 2-11 and 13-22; DMSO was added to wells in columns 12 and 23 as unstimulated controls and assay medium was added to wells in columns 1 and 24 as cell-free controls. An S1P1 agonist was added to wells in row 2, columns 2-11 as stimulated controls and test compounds were added to wells in row 2, columns 13-22 and rows 3-15, columns 2-11/13-22 (row 1 and 16 were empty and not used). Compounds in solution were added to the assay plate (Greiner 781090) using an Echo (Labcyte) dose-response program (50 nl/well). The unstimulated and cell-free controls were loaded with 50 nl/well pure DMSO to ensure that the DMSO concentration was constant across the plate for all assays. 50 μl of the cell suspension was added to each well in columns 2-23 of the plate (˜10,000 cells per well). 50 μl of assay medium was added to each well in the cell-free controls (columns 1 and 24). The cells were incubated overnight at 37° C./5% CO2.
(§1) 10 μl of 6× substrate mixture (LiveBLAzer™-FRET B/G substrate (CCF4-AM) Cat # K1096 from Invitrogen, Inc.) was added to each well using Bravo automation and the plates incubated at room temperature for 2 h in the dark. The plate was finally read on EnVision using one excitation channel (409 nm) and two emission channels (460 nm and 530 nm).
(§2) The blue/green emission ratio (460 nm/530 nm) was calculated for each well, by dividing the background-subtracted Blue emission values by the background-subtracted Green emission values. The dose response curve is based on sigmoidal dose-response model. All ratio data was normalized based upon the maximum emission ratio of positive control and minimum emission ratio of negative control (DMSO) on each plate. The intrinsic activity (IA) of each compound is defined as relative response normalised to a reference compound, whose maximum response is defined as 100% after curve fitting.
Turning to `CCc1c(CCN2CCC(C(=O)O)CC2)cccc1-c1nsc(-c2ccc(OC(C)C)c(Cl)c2)n1` [Example 24, 1-{2-[3-(5-{3-chloro-4-[(1-methylethyl)oxy]phenyl}-1,2,4-thiadiazol-3-yl)-2-ethylphenyl]ethyl}-4-piperidinecarboxylic acid trifluoroacetate], the EC50 was < 0.001 µM.
For the compound `CCc1c(CN2CC(C(=O)O)C2)cccc1-c1nsc(-c2ccc(OC(C)C)c(C(F)(F)F)c2)n1` [Example 19, 1-[(2-ethyl-3-{5-[4-[(1-methylethyl)oxy]-3-(trifluoromethyl)phenyl]-1,2,4-thiadiazol-3-yl}phenyl)methyl]-3-azetidinecarboxylic acid], the EC50 is < 0.001 µM.
Consider `CCc1c(CN2CC(C(=O)O)C2)cccc1-c1nsc(-c2ccc(CC(C)C)c(C#N)c2)n1` [Example 27, 1-[(3-{5-[3-cyano-4-(2-methylpropyl)phenyl]-1,2,4-thiadiazol-3-yl}-2-ethylphenyl)methyl]-3-azetidinecarboxylic acid trifluoroacetate], for which the EC50 was ≤ 0.01 µM.
As to `CCc1c(CCN2CCC(C(=O)O)CC2)cccc1-c1nsc(-c2ccc(OC(C)C)c(C(F)(F)F)c2)n1` [Example 21, 1-[2-(2-ethyl-3-{5-[4-[(1-methylethyl)oxy]-3-(trifluoromethyl)phenyl]-1,2,4-thiadiazol-3-yl}phenyl)ethyl]-4-piperidinecarboxylic acid], the EC50 is < 0.001 µM.
Same read-out and setting: under `CCc1c(CN2CC(C(=O)O)C2)cccc1-c1nnc(-c2ccc(OC(C)C)c(C(F)(F)F)c2)s1` [Example 2, 1-[(2-ethyl-3-{5-[4-[(1-methylethyl)oxy]-3-(trifluoromethyl)phenyl]-1,3,4-thiadiazol-2-yl}phenyl)methyl]-3-azetidinecarboxylic acid] stands < 0.001 µM; under `CCc1c(CCN2CCC(C(=O)O)C2)cccc1-c1cnc(-c2ccc(OC(C)C)c(C#N)c2)s1` (stereo not shown) [Example 90], < 0.001 µM.
In the case of `CCc1c(CCN2CC(C(=O)O)C2)cccc1-c1nnc(-c2ccc(OC(C)C)c(Cl)c2)s1` [Example 6, 1-{2-[3-(5-{3-chloro-4-[(1-methylethyl)oxy]phenyl}-1,3,4-thiadiazol-2-yl)-2-ethylphenyl]ethyl}-3-azetidinecarboxylic acid trifluoroacetate], the EC50 was < 0.001 µM.
On to `CCc1c(CN2CCC(C(=O)O)CC2)cccc1-c1cnc(-c2ccc(OC(C)C)c(C#N)c2)s1` [Example 35, 1-{[3-(2-{3-cyano-4-[(1-methylethyl)oxy]phenyl}-1,3-thiazol-5-yl)-2-ethylphenyl]methyl}-4-piperidinecarboxylic acid trifluoroacetate], for which the EC50 was ≤ 0.01 µM.
The same measure, in the same setting: then `CCc1c(CCN2CC(C(=O)O)C2)cccc1-c1nsc(-c2ccc(OC(C)C)c(Cl)c2)n1` [Example 23, 1-{2-[3-(5-{3-chloro-4-[(1-methylethyl)oxy]phenyl}-1,2,4-thiadiazol-3-yl)-2-ethylphenyl]ethyl}-3-azetidinecarboxylic acid trifluoroacetate], with < 0.001 µM.
Consider `CCc1c(CCN2CCC(C(=O)O)CC2)cccc1-c1nsc(-c2ccc(CC(C)C)c(C#N)c2)n1` [Example 29, 1-[2-(3-{5-[3-cyano-4-(2-methylpropyl)phenyl]-1,2,4-thiadiazol-3-yl}-2-ethylphenyl)ethyl]-4-piperidinecarboxylic acid trifluoroacetate], for which the EC50 was < 0.001 µM.
`CCc1c(CCN2CC(C(=O)O)C2)cccc1-c1nsc(-c2ccc(OC(C)C)c(C(F)(F)F)c2)n1` [Example 22, 1-[2-(2-ethyl-3-{5-[4-[(1-methylethyl)oxy]-3-(trifluoromethyl)phenyl]-1,2,4-thiadiazol-3-yl}phenyl)ethyl]-3-azetidinecarboxylic acid]: the EC50 was < 0.001 µM.
For the compound `CCc1c(CCN2CCC(C(=O)O)CC2)cccc1-c1cnc(-c2ccc(OC(C)C)c(Cl)c2)s1` [Example 40, 1-{2-[3-(2-{3-chloro-4-[(1-methylethyl)oxy]phenyl}-1,3-thiazol-5-yl)-2-ethylphenyl]ethyl}-4-piperidinecarboxylic acid trifluoroacetate], the EC50 was < 0.001 µM.
Regarding `CCc1c(CN2CC(C(=O)O)C2)cccc1-c1nsc(-c2ccc(OC(C)C)c(Cl)c2)n1` [Example 25, 1-{[3-(5-{3-chloro-4-[(1-methylethyl)oxy]phenyl}-1,2,4-thiadiazol-3-yl)-2-ethylphenyl]methyl}-3-azetidinecarboxylic acid trifluoroacetate], the EC50 was ≤ 0.01 µM.

The target in another test is T2, human Endothelial Differentiation G-protein Coupled Receptor 3 (EDG3), S1P3 receptor (Homo sapiens, UniProt Q99500).
T2 construct: expressed in transfected cells; host or cells: GeneBLAzer EDG3-Ga15-NFAT-bla HEK 293T
T2 sequence (Q99500 whole entry): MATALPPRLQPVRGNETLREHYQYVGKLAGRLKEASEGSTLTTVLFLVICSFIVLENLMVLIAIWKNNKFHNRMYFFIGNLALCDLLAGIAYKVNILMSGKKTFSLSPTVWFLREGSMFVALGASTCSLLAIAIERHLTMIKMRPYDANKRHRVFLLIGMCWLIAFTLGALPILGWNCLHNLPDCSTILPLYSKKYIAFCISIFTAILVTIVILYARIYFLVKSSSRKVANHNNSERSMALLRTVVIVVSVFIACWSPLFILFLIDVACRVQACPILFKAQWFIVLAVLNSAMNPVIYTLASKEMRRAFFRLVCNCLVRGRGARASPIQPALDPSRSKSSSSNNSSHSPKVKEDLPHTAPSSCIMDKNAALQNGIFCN
Description: S1P3 Assay (GeneBLAzer EDG3-Ga15-NFAT-bla HEK 293T beta-lactamase reporter, agonist dose response). Format: cell-based. The settings on record: EDG3-Ga15-NFAT-bla HEK 293T cells, blue/green emission ratio, 10 point dose response, free base or salt form; read-out: pEC50 (S1P3 assay) (converted). The protocol: GeneBLAzer EDG3-Ga15-NFAT-bla HEK 293T cells (contain the human Endothelial Differentiation G-protein Coupled Receptor 3 (EDG3) and a beta-lactamase reporter gene under control of a NFAT response element and a promiscuous G Protein, Ga15, stably integrated into the GeneBLAzer Ga15-NFAT-bla HEK 293T cell line) were harvested from growth medium and suspended in assay medium (90% DMEM, 10% Charcoal-stripped FBS, 0.1 mM NEAA, 25 mM HEPES (pH 7.3), 100 U/ml penicillin, 100 μg/ml streptomycin) at a density of […]. All test compounds were dissolved in DMSO at a concentration of 10 mM and were prepared in 100% DMSO to provide 10 point dose response curves. Test compounds in the free base or in a salt form were prepared by Velocity 11 Bravo automation (Agilent) were added to wells in columns 2-11 and 13-22; DMSO was added to wells in columns 12 and 23 as unstimulated controls and assay medium was added to wells in columns 1 and 24 as cell-free controls. An S1P3 agonist was added to wells in row 2, columns 2-11 as stimulated controls and test compounds were added to wells in row 2, columns 13-22 and rows 3-15, columns 2-11/13-22 (row 1 and 16 were empty and not used). Compounds in solution were added to the assay plate (Greiner 781090) using an Echo (Labcyte) dose-response program (50 nl/well). The unstimulated and cell-free controls were loaded with 50 nl/well pure DMSO to ensure that the DMSO concentration was constant across the plate for all assays.
50 μl of the cell suspension was added to each well in columns 2-23 of the plate (˜10,000 cells per well). 50 μl of assay medium was added to each well in the cell-free controls (columns 1 and 24). The cells were incubated overnight at 37° C./5% CO2.
as §1, §2
For `CCc1c(CN2CCC(C(=O)O)CC2)cccc1-c1nsc(-c2ccc(OC(C)C)c(C#N)c2)n1` [Example 16, 1-{[3-(5-{3-cyano-4-[(1-methylethyl)oxy]phenyl}-1,2,4-thiadiazol-3-yl)-2-ethylphenyl]methyl}-4-piperidinecarboxylic acid trifluoroacetate], the EC50 was > 10 µM.
As for `CCc1c(CN2CCC(C(=O)O)CC2)cccc1-c1nsc(-c2ccc(CC(C)C)c(C#N)c2)n1` [Example 28, 1-[(3-{5-[3-cyano-4-(2-methylpropyl)phenyl]-1,2,4-thiadiazol-3-yl}-2-ethylphenyl)methyl]-4-piperidinecarboxylic acid], the EC50 is > 10 µM.
Same read-out and setting: under `CCc1c(CN2CCC(CC(=O)O)CC2)cccc1-c1nsc(-c2ccc(OC(C)C)c(C(F)(F)F)c2)n1` [Example 20, {1-[(2-ethyl-3-{5-[4-[(1-methylethyl)oxy]-3-(trifluoromethyl)phenyl]-1,2,4-thiadiazol-3-yl}phenyl)methyl]-4-piperidinyl}acetic acid] stands > 10 µM.
For `CCc1c(CN2CCCC(C(=O)O)C2)cccc1-c1cnc(-c2ccc(OC(C)C)c(C#N)c2)s1` (stereo not shown) [Example 86], the EC50 was > 10 µM.
Turning to `CCc1c(CCN2CCC(C(=O)O)C2)cccc1-c1nsc(-c2ccc(OC(C)C)c(Cl)c2)n1` (stereo not shown) [Example 67], the EC50 was > 3.16 µM.
Still for that read-out and setting: under `CCc1c(CCN2CCC[C@H](C(=O)O)C2)cccc1-c1nsc(-c2ccc(OC(C)C)c(Cl)c2)n1` [Example 71] stands > 3.16 µM.
On the same count and under the same terms, then `CCc1c(CN2CCC[C@H]2C(=O)O)cccc1-c1cnc(-c2ccc(OC(C)C)c(C#N)c2)s1` [Example 81, 1-{[3-(2-{3-cyano-4-[(1-methylethyl)oxy]phenyl}-1,3-thiazol-5-yl)-2-ethylphenyl]methyl}-L-proline trifluoroacetate], with > 10 µM.
With `CCc1c(CCN2CCC[C@@H]2C(=O)O)cccc1-c1cnc(-c2ccc(OC(C)C)c(C#N)c2)s1` [Example 89], the EC50 was > 10 µM.
As to `CCc1c(CN2C[C@H](O)C[C@H]2C(=O)O)cccc1-c1cnc(-c2ccc(OC(C)C)c(C#N)c2)s1` [Example 85], the EC50 was > 10 µM.
